Laboratory results reported in patent US8937091B2 (Japan Science and Technology Agency, priority 2009, dated 2015).

Tests used:
[1] = test system: SOCE (store operated calcium entry) in CHO cells; assay: Assay of SOCE (store operated calcium entry)-inhibiting action; assay type: cell-based, Chinese hamster; conditions: CHO cells, thapsigargin; for inhibition at 10 µM / inhibition at 30 µM / inhibition at 100 µM: Cricetulus griseus, CHO, read-out: SOCE level (percentage of inhibition)
In short: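 CHO cells in calcium-free BSS received compound, then 1 μM thapsigargin 2 min later to deplete stores; after 9 min, 2 mM calcium chloride (final) added. Percent inhibition of the rise in intracellular calcium determined at various compound concentrations.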

[2] = test system: IICR (IP3 induced calcium release) in CHO cells; assay: Assay of IICR (IP3 induced calcium release)-inhibiting action; assay type: cell-based, Chinese hamster; conditions: CHO cells, 10 μM ATP; for inhibition at 10 µM / inhibition at 30 µM / inhibition at 100 µM: Cricetulus griseus, CHO, read-out: IICR level (percentage of inhibition)
In short: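 Inhibition (%) of the intracellular calcium increase triggered by 10 μM ATP, measured in CHO cells in BSS with calcium. Compound given 1 min after the buffer exchange and 2 min before ATP; values reported per compound concentration.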

Row | SMILES | inhibition at 10 µM ([1]; test compound 10 μmol) | inhibition at 30 µM ([1]; test compound 30 μmol) | inhibition at 100 µM ([1]; test compound 100 μmol) | inhibition at 10 µM ([2]; test compound 10 μmol) | inhibition at 30 µM ([2]; test compound 30 μmol) | inhibition at 100 µM ([2]; test compound 100 μmol) | SOCE level (percentage of inhibition) ([1]; test compound 10 μmol) | SOCE level (percentage of inhibition) ([1]; test compound 30 μmol) | SOCE level (percentage of inhibition) ([1]; test compound 100 μmol) | IICR level (percentage of inhibition) ([2]; test compound 10 μmol) | IICR level (percentage of inhibition) ([2]; test compound 30 μmol) | IICR level (percentage of inhibition) ([2]; test compound 100 μmol)
1 | CCCCN(CCO)CCC(=O)c1cccs1 [Example 247, 2-(N-butyl-2-hydroxyethyl)aminoethyl-2-thiophenylketone] | 0% | 0% | 0% | 10% | 0% | 0% | – | – | – | – | – | –
2 | CN(CCC(=O)c1cccnc1)Cc1ccccc1 [Example 248, 2-(N-benzylmethyl)aminoethyl-3-pyridylketone] | 0% | 0% | 0% | 0% | 10% | 80% | – | – | – | – | – | –
3 | O=C(CCN(CCO)CCO)c1ccncc1 [Example 249, 2-(N-bis-2-hydroxyethyl)aminoethyl-4-pyridylketone] | 0% | 0% | 20% | 0% | 60% | 80% | – | – | – | – | – | –
4 | CCCCN(CCO)CCC(=O)c1ccccn1 [Example 250] | 0% | 0% | 0% | 0% | 10% | 20% | – | – | – | – | – | –
5 | CN(CCO)CCC(=O)c1ccccn1 [Example 251, 2-(N-methyl-2-hydroxyethyl)aminoethyl-2-pyridylketone] | 0% | 0% | 0% | 0% | 0% | 0% | – | – | – | – | – | –
6 | CCc1nccnc1C(=O)CCN(CCO)C(C)C [Example 252, 2-(N-isopropyl-2-hydroxyethyl)aminoethyl-3-ethyl-2-pyrazylketone] | – | – | – | – | – | – | 0% | 0% | 0% | 0% | 0% | 80%
7 | CCN(CCC(=O)c1cccs1)Cc1ccccc1 [Example 253, 2-(N-benzylethyl)aminoethyl-2-thiophenylketone] | 0% | 10% | 40% | 20% | 0% | 20% | – | – | – | – | – | –
8 | CN(CCO)CCC(=O)c1ccsc1 [Example 254, 2-(N-2-hydroxyethylmethyl)aminoethyl-3-thiophenylketone] | 0% | 0% | 0% | 0% | 30% | 40% | – | – | – | – | – | –
9 | CCCCN(CCO)CCC(=O)c1ccc(C)o1 [Example 255, 2-(N-2-hydroxyethylbutyl)aminoethyl-5-methyl-2-furylketone] | 0% | 0% | 0% | 0% | 30% | 50% | – | – | – | – | – | –
10 | CC(C)(C)N(CCC(=O)c1nccs1)Cc1ccccc1 [Example 256, 2-(N-benzyl-t-butyl)aminoethyl-2-thiazolylketone] | 0% | 0% | 10% | 50% | 90% | 80% | – | – | – | – | – | –
11 | Cc1nc(C)c(C(=O)CCN(CCO)C(C)C)s1 [Example 257, 2-(N-isopropyl-2-hydroxyethyl)aminoethyl-2,4-dimethyl-5-thiazolylketone] | 0% | 0% | 0% | 0% | 0% | 20% | – | – | – | – | – | –
12 | CN(CCC(=O)c1nccs1)Cc1ccccc1 [Example 258, 2-(N-benzylmethyl)aminoethyl-2-thiazolylketone] | 0% | 0% | 0% | 20% | 0% | 20% | – | – | – | – | – | –
